Results taken from US10888574B2, “Method for suppressing obesity, method for treating obesity, and method for promoting gene expression” (Kinjirushi Co., Ltd., priority 2017, dated 2021).

Tests used:
brown adipocytes = test: Quantitative determination of lipid droplets by Oil Red O staining in brown adipocytes; format: cell-based, rat; details: for Quantity of lipid droplets produced, Average: relative absorbance at 540 nm, control = 100, n=3; for Quantity of lipid droplets produced compared with medium without the substance (in words): rat primary brown adipocytes, FIG. 2
Description: (§1) In each example, as described below, brown adipocytes were cultured in a test medium to which each of various test substances has been added, and then quantitative determination of expression level of UCP1 gene and quantitative determination of lipid droplets by Oil Red 0 staining were performed.
(§2) Noradrenaline, isovitexin, and isosaponarin were each added to the maintenance medium. The final concentration in each media was set to 1 μmol/L for noradrenaline; 1 mmol/L, 100 μmol/L, and 10 μmol/L for isovitexin; and 1 mmol/L, 100 μmol/L, and 10 μmol/L for isosaponarin.
(§3) The brown adipocytes used in the test were those contained in the rat-derived primary brown adipocyte culture kit (manufactured by Cosmo Bio Co., Ltd., code number: BAT02). Using the above-described growth medium, the brown adipocytes were inoculated in the respective wells of a 24-well plate at a density of 3×10^4 cells/well. The brown adipocytes were cultured at 37° C. with 5% CO2 for 3 days in a CO2 incubator (multi-gas incubator, manufactured by Panasonic Healthcare Holdings Co., Ltd., product number: MCO-19MUVH). Next, the medium in each well was replaced with the differentiation-inducing medium, and culture was performed for 2 days in the CO2 incubator (5% CO2, 37° C.). Then, the medium in each well was replaced with the above-described maintenance medium, and culture was performed for 2 days in the CO2 incubator (5% CO2, 37° C.). Further, the medium in each well was replaced with the above-described maintenance medium again, and the brown adipocytes were cultured for 1 day in the CO2 incubator (5% CO2, 37° C.). Subsequently, analysis of gene expression and evaluation by Oil Red 0 staining were performed as below.
Lipid droplets in the cell cultured as described in the above item (2) were quantitatively determined through the steps below using Lipid Assay Kit (manufactured by Cosmo Bio Co., Ltd., code number: AK09F).
Step 2-1. Fixative solution was prepared by mixing the following ingredients together: • 37% formaldehyde solution (formalin stock solution): 100 mL, • purified water: 900 mL, • sodium dihydrogen phosphate monohydrate (NaH2PO4·H2O): 4 g, and • disodium hydrogen phosphate, anhydrous (Na2HPO4): 6.5 g.
Step 2-2. The culture solution was removed from the well plate subjected to the culture operation in the above “(2) Culture of brown adipocytes”. Then, each well was washed once with 500 μL per well of PBS.
Step 2-3. 500 μL per well of the fixative solution prepared in Step 2-1 was added to each well, and the well plate was left at rest overnight at room temperature.
Step 2-4. After the immobilization, washing of each well with 500 μL per well of purified water was performed.
Step 2-5. Undiluted Oil Red 0 solution in the kit and purified water were mixed together at a ratio of 6:4 (volume ratio) to obtain a mixed solution, and the mixed solution was left at rest at room temperature for 10 to 15 minutes. Then, the mixed solution was filtered through a membrane filter having pores with a pore diameter of 0.5 to 1.0 μm. The filtrate was used as Oil Red 0 solution.
Step 2-6. 500 μL of the above-described Oil Red 0 solution was dispensed into each well, and the well plate was left at rest at room temperature for 15 minutes.
Step 2-7. After that, the Oil Red 0 solution was removed from the well, and each well was washed with purified water three times or more. Such washing was performed thoroughly until the used purified water becomes clear.
Step 2-8. 500 μL of solvent for extraction in the kit was added into the dried well, and pigments were eluted. 0.1 mL of the eluate with the pigments eluted therein was dispensed into each well of a 96-well plate, and absorbance at a wavelength of 540 nm was measured with a micro-plate reader (Infinite [registered trademark] M200 PRO, manufactured by TECAN). […]

UCP1 gene = test: Quantitative determination of expression level of UCP1 gene in brown adipocytes (real-time PCR, GAPDH internal standard); format: cell-based; details: rat primary brown adipocytes; for Relative value of UCP1 gene expression, Average: control = 1.00, n=3; for UCP1 gene expression as compared with the control (in words): FIG. 1
Description: as §1, §2, §3
RNAs were recovered from the brown adipocytes using 0.2 mL per well of TRI Reagent (manufactured by Molecular Research Center, Inc., catalog number: TR118). Using 500 ng of each sample RNA, cDNA synthesis was performed using a cDNA synthesis kit (product name: SuperScript [registered trademark] VILO™ cDNA Synthesis Kit, manufactured by Thermo Fisher Scientific Inc., catalog number: 11754050). Real-time PCR was performed using a real-time PCR kit (product name: LightCycler [registered trademark] Taqman [registered trademark] Master, manufactured by Roche Applied Science, catalog number: 4735536) and a real-time PCR device (product name: LigthCycler [registered trademark] 480 System II, manufactured by Roche Diagnostics). Analysis of UCP1 gene expression was performed using GAPDH as an internal standard.
Primers and probes used in the test were as follows: • UCP1 primer, • forward primer: […] (SEQ ID No. 1, synthesized by Sigma-Aldrich Co. LLC), • reverse primer: tggccttcaccttggatct (SEQ ID No. 2, synthesized by Sigma-Aldrich Co. LLC), • probe: Universal ProbeLibrary probe #130 (manufactured by Roche Life Science Co. Ltd.), • GAPDH primer, • forward primer: […] (SEQ ID No. 3, synthesized by Sigma-Aldrich Co. LLC), • reverse primer: […] (SEQ ID No. 4, synthesized by Sigma-Aldrich Co. LLC), and
probe: Universal ProbeLibrary probe #80 (manufactured by Roche Life Science Co. Ltd.).
The number of experiments performed was three. […] The significant difference is indicated as “<0.05” when the significance level of the t-test was 5%, and as “<0.01” when the significance level was 1%.

SMILES | Quantity of lipid droplets produced, Average (brown adipocytes; concentration 10 μmol/L) | Quantity of lipid droplets produced, Average (brown adipocytes; concentration 100 μmol/L) | Quantity of lipid droplets produced, Average (brown adipocytes; concentration 1 mmol/L) | Quantity of lipid droplets produced compared with medium without the substance (in words) (brown adipocytes) | Relative value of UCP1 gene expression, Average (UCP1 gene; final concentration 10 μmol/L) | Relative value of UCP1 gene expression, Average (UCP1 gene; final concentration 100 μmol/L) | Relative value of UCP1 gene expression, Average (UCP1 gene; final concentration 1 mmol/L) | UCP1 gene expression as compared with the control (in words) (UCP1 gene) | Relative value of UCP1 gene expression, Average (UCP1 gene; final concentration 1 μmol/L)
O=c1cc(-c2ccc(OC3OC(CO)C(O)C(O)C3O)cc2)oc2cc(O)c(C3OC(CO)C(O)C(O)C3O)c(O)c12 (centres unmarked) [Isosaponarin] | 104.0% | 97.7% | 98.9% | quantity of lipid droplets produced was smaller | 1.17 | 1.30 | 1.18 | significant increase in UCP1 gene expression | –
NC[C@H](O)c1ccc(O)c(O)c1 [Noradrenaline, reference compound] | – | – | – | – | – | – | – | – | 1.38
O=c1cc(-c2ccc(O)cc2)oc2cc(O)c([C@@H]3O[C@H](CO)[C@@H](O)[C@H](O)[C@H]3O)c(O)c12 [Isovitexin] | 84.8% | 83.3% | 77.8% | quantity of lipid droplets produced was smaller | 1.30 | 1.30 | 1.45 | significant increase in UCP1 gene expression | –
